According to ChEMBL document CHEMBL1201862, “PubChem BioAssay data set” (2004):
Activity calls are given as the source filed them.

How the values were obtained:
Cytochrome P450 2C19 = Cytochrome P450 2C19 (Homo sapiens, UniProt P33261); assay: Cytochrome panel assay with activity outcomes. Panel member name: p450-cyp2c19 Compounds with AC50 equal or less than 10 uM are considered active; assay type: functional; settings: read-out: AC50
Cytochrome P450 1A2 = biological target: T1, Cytochrome P450 1A2 (Homo sapiens, UniProt P05177);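 further: PubChem cytochrome P450 panel assay, CYP1A2 panel member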
T1 sequence (P05177 whole entry): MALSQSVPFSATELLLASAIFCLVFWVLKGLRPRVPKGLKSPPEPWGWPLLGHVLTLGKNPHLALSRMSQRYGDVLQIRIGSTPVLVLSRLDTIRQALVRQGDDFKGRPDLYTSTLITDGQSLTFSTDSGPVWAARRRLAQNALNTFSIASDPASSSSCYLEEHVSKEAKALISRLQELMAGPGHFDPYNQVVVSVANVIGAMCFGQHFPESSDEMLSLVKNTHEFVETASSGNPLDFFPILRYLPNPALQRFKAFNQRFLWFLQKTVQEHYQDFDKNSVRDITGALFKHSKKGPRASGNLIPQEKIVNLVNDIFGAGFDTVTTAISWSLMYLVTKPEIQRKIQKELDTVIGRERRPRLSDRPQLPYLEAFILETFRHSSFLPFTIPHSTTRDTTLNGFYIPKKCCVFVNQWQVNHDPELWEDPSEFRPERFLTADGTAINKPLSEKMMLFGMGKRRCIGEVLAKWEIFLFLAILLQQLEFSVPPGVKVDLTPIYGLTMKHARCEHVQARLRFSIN

[1] = biological target: T2, Heat shock factor protein 1 (Mus musculus, UniProt P38532); assay: HSF1 potentiators in luciferase reporter cells, confirmation, cell-based, NIH3T3, luminescence, dose retest (AID 435004); assay type: functional;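 further: stress induced by proteasome inhibitor MG132 added 30 min after compound; luciferase reporter driven by HSF1 response element in NIH3T3 cells; actives raise luminescence as potentiators of the MG132 stress response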
T2 sequence (P38532 whole entry): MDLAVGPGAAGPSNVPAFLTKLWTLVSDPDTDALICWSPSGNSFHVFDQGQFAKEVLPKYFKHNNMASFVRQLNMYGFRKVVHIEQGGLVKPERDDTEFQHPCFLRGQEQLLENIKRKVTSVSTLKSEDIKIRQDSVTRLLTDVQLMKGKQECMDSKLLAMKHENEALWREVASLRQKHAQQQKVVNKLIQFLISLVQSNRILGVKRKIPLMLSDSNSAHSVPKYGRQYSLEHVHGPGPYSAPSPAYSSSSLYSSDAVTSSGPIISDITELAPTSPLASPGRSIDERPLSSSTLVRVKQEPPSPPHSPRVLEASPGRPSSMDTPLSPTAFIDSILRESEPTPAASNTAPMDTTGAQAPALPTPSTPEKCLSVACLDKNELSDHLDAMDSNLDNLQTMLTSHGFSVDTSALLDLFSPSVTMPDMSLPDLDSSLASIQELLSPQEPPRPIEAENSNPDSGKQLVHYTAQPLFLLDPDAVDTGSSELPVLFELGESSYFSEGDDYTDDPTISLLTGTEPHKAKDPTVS

[2] = biological target: T3, Rac GTPase-activating protein 1 (Homo sapiens, UniProt Q9H0H5); assay: MgcRacGAP GTPase-activating activity inhibitors, confirmation, biochemical, ADP Hunter fluorescence, primary and confirmatory (AID 624330); assay type: functional
T3 sequence (Q9H0H5 whole entry): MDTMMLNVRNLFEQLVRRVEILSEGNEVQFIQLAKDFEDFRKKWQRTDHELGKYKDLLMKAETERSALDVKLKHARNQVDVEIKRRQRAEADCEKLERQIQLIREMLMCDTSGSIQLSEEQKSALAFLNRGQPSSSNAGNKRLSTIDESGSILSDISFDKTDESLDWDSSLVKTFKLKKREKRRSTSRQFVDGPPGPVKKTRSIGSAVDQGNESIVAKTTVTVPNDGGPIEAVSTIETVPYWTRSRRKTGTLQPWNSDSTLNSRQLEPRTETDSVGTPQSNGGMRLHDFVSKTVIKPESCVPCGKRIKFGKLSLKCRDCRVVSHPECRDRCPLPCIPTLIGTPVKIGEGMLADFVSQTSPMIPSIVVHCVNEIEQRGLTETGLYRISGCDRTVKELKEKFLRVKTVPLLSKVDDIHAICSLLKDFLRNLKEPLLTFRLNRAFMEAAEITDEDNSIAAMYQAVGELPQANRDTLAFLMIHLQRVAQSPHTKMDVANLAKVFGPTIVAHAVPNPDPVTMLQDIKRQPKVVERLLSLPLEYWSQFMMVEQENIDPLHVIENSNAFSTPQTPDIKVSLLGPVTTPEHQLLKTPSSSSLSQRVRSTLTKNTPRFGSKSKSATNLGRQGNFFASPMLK

Cytochrome P450 2D6 = Cytochrome P450 2D6 (Homo sapiens, UniProt P10635);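 further: CYP2D6 member of a cytochrome P450 panel assay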
Chain of Cytochrome P450 2D6 (P10635 whole entry): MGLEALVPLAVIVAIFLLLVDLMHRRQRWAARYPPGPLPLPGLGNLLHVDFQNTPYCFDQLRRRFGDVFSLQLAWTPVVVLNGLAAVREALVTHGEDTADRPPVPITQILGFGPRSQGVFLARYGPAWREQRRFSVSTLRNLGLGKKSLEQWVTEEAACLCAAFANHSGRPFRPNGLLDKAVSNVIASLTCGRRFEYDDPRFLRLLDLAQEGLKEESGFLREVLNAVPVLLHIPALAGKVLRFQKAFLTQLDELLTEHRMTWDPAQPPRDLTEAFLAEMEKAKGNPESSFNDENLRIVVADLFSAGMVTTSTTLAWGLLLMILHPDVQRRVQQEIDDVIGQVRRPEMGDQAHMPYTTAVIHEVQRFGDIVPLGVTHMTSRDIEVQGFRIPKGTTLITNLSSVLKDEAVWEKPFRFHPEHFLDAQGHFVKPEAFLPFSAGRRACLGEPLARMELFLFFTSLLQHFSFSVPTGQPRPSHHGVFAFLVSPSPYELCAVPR

Cytochrome P450 3A4 = Cytochrome P450 3A4 (Homo sapiens, UniProt P08684);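 further: CYP3A4 tested as one member of a cytochrome P450 panel screen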
Chain of Cytochrome P450 3A4 (P08684 whole entry): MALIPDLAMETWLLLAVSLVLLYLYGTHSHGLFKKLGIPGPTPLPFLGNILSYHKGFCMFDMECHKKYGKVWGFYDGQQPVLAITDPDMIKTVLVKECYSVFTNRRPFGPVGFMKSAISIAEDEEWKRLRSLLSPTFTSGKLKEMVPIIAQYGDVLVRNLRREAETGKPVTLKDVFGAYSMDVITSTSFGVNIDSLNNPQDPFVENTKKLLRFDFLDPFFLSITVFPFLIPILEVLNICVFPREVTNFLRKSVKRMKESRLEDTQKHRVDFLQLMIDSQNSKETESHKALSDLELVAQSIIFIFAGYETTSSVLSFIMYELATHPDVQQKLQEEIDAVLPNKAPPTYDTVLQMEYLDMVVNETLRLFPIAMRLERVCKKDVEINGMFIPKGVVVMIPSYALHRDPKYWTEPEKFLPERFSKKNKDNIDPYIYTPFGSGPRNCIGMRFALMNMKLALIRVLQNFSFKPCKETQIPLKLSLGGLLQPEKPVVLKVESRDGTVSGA

[3] = biological target: T4, Corticotropin-releasing factor receptor 2/Corticotropin-releasing factor-binding protein (Homo sapiens, UniProt P24387+Q13324); assay: activators of CRF receptor 2 with binding protein – uHTS hits, confirmation (AID 602473); assay type: functional; settings: read-out: EC50_Mean
T4 sequence (Q13324 whole entry): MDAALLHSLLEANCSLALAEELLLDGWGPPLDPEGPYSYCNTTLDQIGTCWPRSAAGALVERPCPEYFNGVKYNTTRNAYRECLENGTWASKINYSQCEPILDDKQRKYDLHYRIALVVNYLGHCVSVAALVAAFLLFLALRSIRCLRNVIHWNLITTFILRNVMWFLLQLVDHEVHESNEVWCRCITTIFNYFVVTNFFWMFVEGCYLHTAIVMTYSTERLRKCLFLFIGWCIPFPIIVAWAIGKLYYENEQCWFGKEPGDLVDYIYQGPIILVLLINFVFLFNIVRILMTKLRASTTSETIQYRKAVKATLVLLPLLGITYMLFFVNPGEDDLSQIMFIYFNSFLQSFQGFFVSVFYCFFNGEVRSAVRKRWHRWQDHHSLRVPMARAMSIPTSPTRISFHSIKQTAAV
T4 sequence (P24387 whole entry): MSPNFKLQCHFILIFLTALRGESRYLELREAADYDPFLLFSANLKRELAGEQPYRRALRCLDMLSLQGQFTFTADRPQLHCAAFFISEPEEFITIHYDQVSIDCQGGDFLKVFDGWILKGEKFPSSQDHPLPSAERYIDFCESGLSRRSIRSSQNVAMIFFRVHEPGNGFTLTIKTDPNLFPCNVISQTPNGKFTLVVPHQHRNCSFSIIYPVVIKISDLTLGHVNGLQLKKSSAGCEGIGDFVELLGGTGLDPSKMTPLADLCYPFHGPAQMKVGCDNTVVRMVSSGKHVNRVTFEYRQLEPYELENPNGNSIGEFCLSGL

[4] = biological target: T4, Corticotropin-releasing factor receptor 2/Corticotropin-releasing factor-binding protein; assay: Dose Response confirmation of uHTS hits for small molecule antagonists of the CRF-binding protein and CRF-R2 receptor complex.; assay type: functional; settings: read-out: IC50_Mean
[5] = cytotoxicity toward NIH3T3 fibroblasts, dose response, counter-screen, cell-based, ATP luminescence, mouse fibroblasts (AID 2010); assay type: functional;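 further: cells exposed to compound for about 90 hours before reading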
[6] = inhibitors of intracellular T. cruzi replication, confirmation, NIH3T3 host cells, beta-gal luminescence (AID 2044); assay type: functional, cell-based;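 further: intracellular parasites grown in NIH/3T3 mouse fibroblasts as host cells; luminescent beta-galactosidase reporter signal from transgenic T. cruzi replicating inside host cells; inhibitors lower the luminescence signal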
Cytochrome P450 2C9 = Cytochrome P450 2C9 (Homo sapiens, UniProt P11712)
Chain of Cytochrome P450 2C9 (P11712 whole entry): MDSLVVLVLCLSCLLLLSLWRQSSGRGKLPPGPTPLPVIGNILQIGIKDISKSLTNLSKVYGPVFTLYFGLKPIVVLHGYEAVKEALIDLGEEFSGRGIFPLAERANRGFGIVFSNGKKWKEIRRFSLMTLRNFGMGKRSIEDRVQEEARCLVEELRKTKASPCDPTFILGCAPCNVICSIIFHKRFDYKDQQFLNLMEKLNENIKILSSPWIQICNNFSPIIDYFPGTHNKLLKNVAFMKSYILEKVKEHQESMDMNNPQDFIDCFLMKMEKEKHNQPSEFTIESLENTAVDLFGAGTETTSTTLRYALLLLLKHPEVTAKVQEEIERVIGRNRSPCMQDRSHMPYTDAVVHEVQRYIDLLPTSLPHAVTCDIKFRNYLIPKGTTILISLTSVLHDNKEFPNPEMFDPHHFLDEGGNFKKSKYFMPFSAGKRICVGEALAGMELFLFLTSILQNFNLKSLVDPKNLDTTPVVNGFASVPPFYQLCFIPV

[7] = HEp-2 cell cytotoxicity, dose response, cytotoxicity control for RSV inhibitor project, HTS (AID 2410); assay type: functional; settings: human respiratory syncytial virus

Chain of Cytochrome P450 2C19 (P33261 whole entry): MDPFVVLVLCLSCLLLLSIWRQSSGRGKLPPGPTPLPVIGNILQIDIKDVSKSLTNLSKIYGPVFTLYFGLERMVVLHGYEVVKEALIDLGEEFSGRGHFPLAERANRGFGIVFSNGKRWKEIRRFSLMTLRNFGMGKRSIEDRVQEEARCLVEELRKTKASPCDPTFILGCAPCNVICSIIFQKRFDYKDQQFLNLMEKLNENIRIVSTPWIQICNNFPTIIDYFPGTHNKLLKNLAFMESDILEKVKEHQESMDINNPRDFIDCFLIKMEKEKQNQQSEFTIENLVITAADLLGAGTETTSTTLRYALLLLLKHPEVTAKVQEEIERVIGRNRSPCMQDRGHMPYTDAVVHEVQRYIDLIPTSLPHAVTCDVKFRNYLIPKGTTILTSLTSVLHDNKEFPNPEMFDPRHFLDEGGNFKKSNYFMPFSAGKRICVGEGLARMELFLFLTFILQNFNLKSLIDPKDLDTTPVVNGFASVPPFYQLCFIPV

NC1=NC2(CCCCCC2)n2c(nc3ccccc32)N1
AC50 (Cytochrome P450 2C19): 22.4 µM (inconclusive) | AC50 (Cytochrome P450 1A2): 28.2 µM (inconclusive)

Nc1cc[n+](CC(=O)Nc2ccccc2)cc1
EC50 [1]: > 260 µM (inactive)

Cn1cnc([N+](=O)[O-])c1Sc1nc(N)nc2c1ncn2[C@H]1C[C@H](O)[C@@H](CO)O1
AC50 (Cytochrome P450 1A2): 6.31 µM (inconclusive)

CC12CN(C(S)=Nc3ccccc3)CC(C)(CN(C(S)=Nc3ccccc3)C1)C2=O
EC50 [1]: > 260 µM (inactive)

CC(C)c1nnc(SCc2ccc(CSc3nnc(C(C)C)n3N)cc2)n1N
EC50 [1]: > 260 µM (inactive)

COc1cc(OC)c(N(C)S(=O)(=O)c2cccc(C(=O)Nc3nnc(C4CC4)s3)c2)cc1Cl
EC50 [1]: 203 µM (active)

COc1ccc(CN2CCNC(=O)C2CC(=O)NCC2CCOCC2)cc1C (stereo unspecified)
EC50 [1]: > 260 µM (inactive)

CCCCCNCc1cccc(Br)c1
AC50 (Cytochrome P450 1A2): 15.8 µM (inconclusive)

C=CCN(CC=C)C(=O)C1CCN(Cc2ccc(OCc3ccccc3)cc2)CC1
IC50 [2]: 169 µM (active)

Cc1ccc(NC(=O)Cn2cnc3c(cnn3C(C)(C)C)c2=O)cc1
AC50 (Cytochrome P450 2D6): 14.1 µM (inconclusive) | AC50 (Cytochrome P450 1A2): 31.6 µM (inconclusive) | AC50 (Cytochrome P450 3A4): 12.6 µM (inconclusive)

O=[N+]([O-])c1ccc(N2CCN(c3ccc(O)cc3)CC2)c(Cl)c1
IC50 [2]: 45 µM (active)

O=C(Nc1nc(-c2ccccc2)cs1)c1ccc2c(c1)S(=O)(=O)c1ccccc1C2=O
EC50 [3]: > 53 µM (inactive) | IC50 [4]: > 47.1 µM (inactive)

CCN(c1ccccc1)S(=O)(=O)c1cc(NC(=O)CSc2nnc(O)nc2O)ccc1Cl
EC50 [3]: > 53 µM (inactive) | IC50 [4]: > 47.1 µM (inactive)

O=C(CCN1C(=O)c2ccccc2C1=O)Nc1sc2c(c1C(=O)NCC1CCCO1)CCC2 (stereo unspecified)
EC50 [1]: > 260 µM (inactive)

CCCc1cc(=O)nc(SCC(=O)Nc2ccc(OC(F)F)cc2)[nH]1
EC50 [3]: > 53 µM (inactive) | IC50 [4]: > 47.1 µM (inactive)

CCOC(=O)C1(CCOc2ccccc2)CCN(Cc2cc(OC)c3c(c2)OCO3)CC1
EC50 [5]: > 60 µM (not active) | EC50 [6]: 2.65 µM (active) | EC50 [1]: > 260 µM (inactive)

CCOC(=O)N1CCN(C(=O)CCn2nc(-c3ccccc3)ccc2=O)CC1
AC50 (Cytochrome P450 1A2): 15.8 µM (inconclusive)

Cc1ccc(NCc2ccco2)cc1C
IC50 [2]: 123 µM (active)

COc1ccc(Br)cc1CN(C)CC(=O)NCCc1ccccc1
IC50 [2]: 95.5 µM (active)

COc1ccc(NC(=O)N2CCC3(CC2)CCN(C(=O)c2ccco2)CC3)cc1
AC50 (Cytochrome P450 1A2): 20 µM (inconclusive)

C[C@@]12C=CC(=O)C=C1CC[C@@H]1C2=CC[C@]2(C)[C@@H]1CC[C@H]2C(=O)CN1CCN(c2cc(N3CCCC3)nc(N3CCCC3)n2)CC1
AC50 (Cytochrome P450 2D6): 25.1 µM (inconclusive) | AC50 (Cytochrome P450 2C9): 12.6 µM (inconclusive) | AC50 (Cytochrome P450 1A2): 12.6 µM (inconclusive)

COC(=O)C1CC1C(NC(=O)[C@@H]1CCCN1)c1ccccc1 (stereo partly specified)
AC50 (Cytochrome P450 2D6): 20 µM (inconclusive) | AC50 (Cytochrome P450 2C19): 39.8 µM (inconclusive) | AC50 (Cytochrome P450 1A2): 15.8 µM (inconclusive)

CCOC(=O)CSC1=NC(=O)/C(=C\c2ccc(Cl)cc2)S1
CC50 [7]: 18.9 µM (active) | AC50 (Cytochrome P450 2C19): 3.16 µM (inconclusive) | EC50 [1]: 2.74 µM (active)

O=C1c2ccccc2-c2ncnc3c(N4CCOCC4)cc(N4CCOCC4)c1c23
EC50 [3]: > 53 µM (inactive) | IC50 [4]: > 47.1 µM (inactive)

Cc1nn(Cc2ccccc2Cl)c(C)c1NC(=O)CCCn1nc([N+](=O)[O-])c(Cl)c1C
EC50 [5]: > 60 µM (not active) | EC50 [6]: 0.514 µM (active) | EC50 [1]: > 260 µM (inactive)

COc1ccc(Nc2nc(Cl)nc(NCc3ccco3)n2)c(OC)c1
EC50 [3]: > 53 µM (inactive) | IC50 [4]: > 47.1 µM (inactive)

CCS(=O)(=O)N1CCc2nc(-c3ccccc3)sc2C1
EC50 [1]: > 260 µM (inactive)

CCN1CCCC1CNCC(=O)Nc1ccc(OC(F)(F)F)cc1 (stereo unspecified)
IC50 [2]: 115 µM (active)

O=[N+]([O-])c1ccc(S(=O)(=O)N(Cc2cccnc2)Cc2cc3ccccc3nc2O)cc1
EC50 [5]: > 60 µM (not active) | EC50 [6]: 1.84 µM (active) | EC50 [1]: > 260 µM (inactive)

Cc1cc(-c2ccccc2)nc2c(Br)c(=O)[nH]n12
IC50 [2]: 210 µM (active)

Cc1ccccc1-c1nnc(CS(=O)(=O)c2ccccc2)o1
EC50 [1]: > 260 µM (inactive)

Oc1ccc(NC(S)=Nc2ccc(F)cc2)cc1
IC50 [2]: 67.5 µM (active)

COC(=O)N1CCC2(CCCN(C(=O)Nc3ccc(OC)cc3)C2)CC1
AC50 (Cytochrome P450 1A2): 20 µM (inconclusive) | AC50 (Cytochrome P450 3A4): 25.1 µM (inconclusive)

CN1CCN(Cc2coc3c(Cl)cc(Cl)cc3c2=O)CC1
IC50 [2]: 79 µM (active)

C=CCNC1=C(C(=O)CCC(=O)OC)C(=O)CC(C)(C)C1
AC50 (Cytochrome P450 1A2): 2.51 µM (inconclusive)

Cc1cc(OCCCC(=O)Nc2cc(S(=O)(=O)N3CCOCC3)ccc2N2CCOCC2)ccc1Cl
EC50 [3]: > 53 µM (inactive) | IC50 [4]: > 47.1 µM (inactive)

COc1ccc(Nc2ccc3ccccc3c2)cc1
IC50 [2]: 53.4 µM (active)

COc1ccc(N2CCN(C(=O)CCS(=O)(=O)c3ccc4c(c3)NC(=O)CO4)CC2)cc1
EC50 [3]: > 53 µM (inactive) | IC50 [4]: > 47.1 µM (inactive)

O=C(O)C1CCCCC1C(=O)Nc1ccc(S(=O)(=O)N2CCOCC2)cc1 (stereo unspecified)
IC50 [2]: 150 µM (active)

O=C1NC(=S)NC1=Cc1ccc(O)cc1
IC50 [2]: 9.78 µM (active)

C/N=C\c1cc(-c2ccccc2)sc1O
IC50 [2]: 199 µM (active)

Cc1ncc2c(c1O)COP(=O)(O)OC2
AC50 (Cytochrome P450 2C19): 5.01 µM (inconclusive) | AC50 (Cytochrome P450 1A2): 31.6 µM (inconclusive)
